In patent US4963655A, “Boron analogs of amino acid/peptide protease inhibitors” (Mayo Foundation for Medical Education and Research, priority 1988, dated 1990):

What was measured:
[1] = system: Lewis lung murine tumor cells; conditions: Lewis lung murine tumor cells in culture; Goz et al.; cited from earlier work
[2] = system: human lung carcinoma (A549) cells; assay: Growth and colony formation of A549 cells in culture; assay type: cell-based
Excerpt: Qualitatively similar results were obtained against human lung carcinoma (A549) cells in culture (data not shown). […] The plateau, however, was not observed in association with the analog after the 1-hour (FIG. 3A) or continuous (FIG. 3C) exposure times. A similar plateau was never observed with Cbz-ala-1-borophenylalanine treatment. A plateau was also seen with A549 cells. A growth inhibition assay (Table 1) yielded qualitatively similar results as the colony formation assay.

[3] = system: Human melanoma cells (A375); assay: Growth Inhibition Assay; assay type: cell-based; conditions: for Growth Inhibition (%) 24 hr: counted after 24 hr growth; for Growth Inhibition (%) 48 hr: counted after 48 hr growth; for Growth Inhibition (%) 96 hr: counted after 96 hr growth; for % Inhib (growth): 96 h exposure, fresh inhibitor every 24 h; for growth inhibitory activity (in words): other serine protease inhibitors, Table 2
Protocol: Human melanoma cells (A375) were seeded at 2 ×10^4 cells per tissue culture dish (60×15 mm, Falcon) in Delbecco's Minimal Essential Media (DMEM) containing 10% fetal calf serum and including 1% antibiotics. Cells were allowed to attach for 48 hours prior to exposure to drugs. Cbz-ala-1-borovaline and Cbz-ala-1-borophenylalanine were dissolved in dimethyl sulfoxide (DMSO). The final DMSO concentration in media was 0.5%. Fresh media was exchanged for the media including the drug at appropriate exposure times. Cells were counted after 24, 48 or 96 hours of growth using a Coulter counter. Growth inhibition is expressed as the percent reduction of drug treated cells with respect to untreated control cells.

[4] = system: A375 cells; assay: Macromolecular synthesis: protein synthesis ([3H]-leucine incorporation); assay type: cell-based, human; conditions: 0.075 ug/ml
Protocol: Protein synthesis was determined by the incorporation of [^3 H]-leucine into protein in viable cells.
Human melanoma (A375) cells were seeded at 1 ×10^5 cells per tissue culture dish 48 hours prior to the addition of the drug (for example, Cbz-ala-1borovaline or Cbz-ala-1-borophenylalanine). The drug and media mixture was prepared as described above. During the last 30 minutes of drug exposure radioactive labeled precursors were added to the media and drug mixture. Specifically, either ^3 H-thymidine (0.2 uCi/ml, to measure DNA synthesis), ^3 H-uridine (0.2 uCi/ml, to measure RNA synthesis, or ^3 H-leucine (1 uCi/ml, to measure protein synthesis) were added. Following 30 minutes at 37° C., the cells were harvested, resuspended in physiological buffered saline (PBS) and the cells counted. An aliquot of the cell suspension was then lysed (10 mM Tris, 1 mM EDTA, 0.1% SDS) and macromolecules were precipitated with ice-cold trichloroacetic acid (TCA) (20%). Following three washes with TCA, radioactivity in the resulting pellet was counted on a Beckman LS2000 Scintillation Counter. Data is expressed as the percentage of counts incorporated into 1×10^6 treated cells as compared to 1×10^6 untreated cells (percent incorporation).

[5] = system: Human melanoma cells (A375); assay: Colony Formation Assay (CFA); assay type: cell-based
Protocol: Human melanoma cells (A375) were seeded at 500 cells per tissue culture dish and allowed to recover for 48 hours. The drug and media mixture was prepared as described above. Following drug exposure, fresh media were substituted for the drug and media mixture. After 7 days, colonies were stained with 0.25% Coomassie Blue and enumerated. Data are expressed as the percent of colonies present in treated plates with respect to control plates (percent survival).

[6] = system: L1210 murine leukemia cells; assay: Growth inhibition of L1210 cells in culture; assay type: cell-based; conditions: 72-hour exposure, 0.03 uM
Protocol: Following a 72-hour exposure to 0.03 uM ala-1-borovaline, approximately 50% growth inhibition was observed. The two compounds are also cytotoxic to human tumor cell lines. While not yet fully understood, the mechanism of cytotoxicity is not via macromolecular synthesis inhibition in the human tumor cell lines.

## CC(NC(=O)OCc1ccccc1)C(=O)NC(Cc1ccccc1)B(O)O (centres unmarked) [Cbz-ala-1-Borophenylalanine, Cbz-ala-1-borophenylalanine]
[1]
  cytotoxicity (in words): modest activity
[2]
  inhibition of growth and colony formation (in words): effective inhibitors
[3]; 0.075 ug/ml, 24-hour exposure
  growth inhibition: 70%
[3]; exposure 1 h, 51.6 uM
  Growth Inhibition (%) 24 hr: 20%
  Growth Inhibition (%) 48 hr: 41%
  Growth Inhibition (%) 96 hr: 52%
[3]; exposure 1 h, 129 uM
  Growth Inhibition (%) 24 hr: 42%
  Growth Inhibition (%) 48 hr: 65%
  Growth Inhibition (%) 96 hr: 69%
[3]; exposure 24 h, .026 uM
  Growth Inhibition (%) 24 hr: 5%
  Growth Inhibition (%) 48 hr: 3%
  Growth Inhibition (%) 96 hr: 15%
[3]; exposure 24 h, .129 uM
  Growth Inhibition (%) 24 hr: 41%
  Growth Inhibition (%) 48 hr: 63%
  Growth Inhibition (%) 96 hr: 68%
[3]; exposure 24 h, .645 uM
  Growth Inhibition (%) 24 hr: 75%
  Growth Inhibition (%) 48 hr: 72%
  Growth Inhibition (%) 96 hr: 98%
[3]; exposure 96 h, .1239 uM
  Growth Inhibition (%) 24 hr: 38%
  Growth Inhibition (%) 48 hr: 68%
  Growth Inhibition (%) 96 hr: 75%
[3]; exposure 96 h, .258 uM
  Growth Inhibition (%) 24 hr: 58%
  Growth Inhibition (%) 48 hr: 91%
  Growth Inhibition (%) 96 hr: 95%
[4]
  inhibition of protein synthesis: did not show an acute inhibition of protein synthesis
[5]; exposure 1 h, 51.6 uM
  Colony Formation Inhibition (%): 55%
[5]; exposure 24 h, .026 uM
  Colony Formation Inhibition (%): 10%
[5]; exposure 24 h, .129 uM
  Colony Formation Inhibition (%): 35%
[5]; exposure 24 h, .645 uM
  Colony Formation Inhibition (%): 97%

## CC(NC(=O)OCc1ccccc1)C(=O)NC(B(O)O)C(C)C (centres unmarked) [Cbz-ala-1-Borovaline, Cbz-ala-1-borovaline]
[6]
  growth inhibition: approximately 50%
[2]
  inhibition of growth and colony formation (in words): effective inhibitors
[3]; exposure 1 h, 7.36 uM
  Growth Inhibition (%) 24 hr: 14%
  Growth Inhibition (%) 48 hr: 33%
  Growth Inhibition (%) 96 hr: 46%
[3]; exposure 1 h, 29.43 uM
  Growth Inhibition (%) 24 hr: 23%
  Growth Inhibition (%) 48 hr: 48%
  Growth Inhibition (%) 96 hr: 73%
[3]; exposure 24 h, 1.47 uM
  Growth Inhibition (%) 24 hr: 61%
  Growth Inhibition (%) 48 hr: 88%
  Growth Inhibition (%) 96 hr: 93%
[3]; exposure 24 h, .003 uM
  Growth Inhibition (%) 24 hr: 5%
  Growth Inhibition (%) 48 hr: 5%
  Growth Inhibition (%) 96 hr: 14%
[3]; exposure 24 h, .029 uM
  Growth Inhibition (%) 24 hr: 17%
  Growth Inhibition (%) 48 hr: 50%
  Growth Inhibition (%) 96 hr: 68%
[3]; exposure 96 h, .029 uM
  Growth Inhibition (%) 24 hr: 21%
  Growth Inhibition (%) 48 hr: 51%
  Growth Inhibition (%) 96 hr: 68%
[3]; exposure 96 h, .736 uM
  Growth Inhibition (%) 24 hr: 53%
  Growth Inhibition (%) 48 hr: 78%
  Growth Inhibition (%) 96 hr: 89%
[5]; FIG. 3
  inhibition of colony formation, comparison of potency (in words): more potent inhibitor of colony formation than was Cbz-ala-1-borophenylalanine
[5]; exposure 1 h, 7.36 uM
  Colony Formation Inhibition (%): 41%
[5]; exposure 1 h, 29.43 uM
  Colony Formation Inhibition (%): 87%
[5]; exposure 24 h, 1.47 uM
  Colony Formation Inhibition (%): 87%
[5]; exposure 24 h, .003 uM
  Colony Formation Inhibition (%): 5%
[5]; exposure 24 h, .029 uM
  Colony Formation Inhibition (%): 43%

## Aprotinin [reference compound]
[3]; 1.54 uM
  % Inhib (growth): 0%
[3]; 15.4 uM
  % Inhib (growth): 0%
[3]; .015 uM
  % Inhib (growth): 0%
[3]; .154 uM
  % Inhib (growth): 0%
[3]
  growth inhibitory activity (in words): Negligible growth inhibition

## N-tosylphenylalanine chloromethyl ketone [TPCK, reference compound]
[3]; 2.84 uM
  % Inhib (growth): 42%
[3]; 28.4 uM
  % Inhib (growth): 100%
[3]; 142 uM
  % Inhib (growth): 100%
[3]; 284 uM
  % Inhib (growth): 100%
[3]; .028 uM
  % Inhib (growth): 5%
[3]; .284 uM
  % Inhib (growth): 9%
[3]
  growth inhibitory activity (in words): inhibited growth at very high concentrations

B1: Ovomucoid: serine protease inhibitor (protein, UniProt P01005 25-210, looked up)
Ovomucoid: AEVDCSRFPNATDKEGKDVLVCNKDLRPICGTDGVTYTNDCLLCAYSIEFGTNISKEHDGECKETVPMNCSSYANTTSEDGKVMVLCNRAFNPVCGTDGVTYDNECLLCAHKVEQGASVDKRHDGGCRKELAAVSVDCSEYPKPDCTAEDRPLCGSDNKTYGNKCNFCNAVVESNGTLTLSHFGKC
[3]; 3.57 uM
  % Inhib (growth): 0%
[3]; 17.9 uM
  % Inhib (growth): 0%
[3]; 89.3 uM
  % Inhib (growth): 5%
[3]; .004 uM
  % Inhib (growth): 0%
[3]; .036 uM
  % Inhib (growth): 0%
[3]; .357 uM
  % Inhib (growth): 1%
[3]
  growth inhibitory activity (in words): Negligible growth inhibition
